Earlier results as cited in patent publication US20260108469A1, “COMPOSITIONS COMPRISING WATER INSOLUBLE DRUGS AND METHODS OF PRODUCING AND USING SAME” (priority 2023, published 2026).

Row | Molecule | solubility in water-based solutions | solubility in water (water) [mg/mL]
1 | CCc1c2c(nc3ccc(O)cc13)-c1cc3c(c(=O)n1C2)COC(=O)[C@]3(O)CC [SN-38, 7-ethyl-10-hydroxycamptothecin] | not soluble in water-based solutions | 
2 | CVKRGLKLRHVRPRVTRMDV (cell penetrating peptide (CPP)) [20 amino acid cell penetrating peptide, DPV1047 with an added N-terminal Cys] |  | > 500
